Laboratory results published in patent publication US20070142437A1, “CHEMICAL COMPOUNDS” (priority 2005, published 2007).

target: T1, CDK4 (Homo sapiens, UniProt P11802); assay: CDK4 substrate phosphorylation assay (Rb protein, 33P-ATP); format: biochemical; settings: Inhibition of CDK4
T1 construct: made in house
Protocol: The compounds of the present invention have valuable pharmacologic properties. Different compounds from this class are particularly effective at inhibiting CDK2 and/or CDK4 enzymes at concentrations, which range from 0.0001 to 1 μM and additionally show specificity relative to other kinases. Substrate phosphorylation assays were carried out as follows:
Cyclin D1 and cyclin-dependent kinase 4 were expressed utilizing a baculovirus expression system. The catalytic activity of CDK4 protein was assayed by measuring the phosphorylation of Rb protein. A truncated Rb protein (residues 773-928 of the native retinoblastoma protein, fused to glutathione S-transferase to facilitate purification) was used as the phosphoryl acceptor. The assay conditions were 100 mM HEPES (N-[2-hydroxyethyl]piperzine-N′-[2-ethanesulfonic acid]), pH 7.5, 0.5 μM GST-Rb protein, 1 μCi/mL [^33P]-ATP (1 nM-20 μM), 5-20 mM MgCl2, 2.5 mM EDTA, 1 mM dithiotheitol, 0.2 mg/mL bovine serum albumin, 2% (v/v) dimethyl sulfoxide (DMSO), CDK4 enzyme (5-50 nM) in a final volume of 50 μL. Reactions were incubated for time periods of 10-60 min at 30° C. and terminated by the addition of 50 μL quench (1 mM ATP/100 mM EDTA, pH 7.0). Detection of protein phosphorylation was accomplished by scintillation counting following collection of protein in 96 well plates coated with Glutathione or trapping of protein onto phosphocellulose filters. Counts detected by these methodologies minus the appropriate background were assumed to be proportional to the reaction initial rates. IC50 values were determined by measuring enzyme activity in the presence of different inhibitor concentrations (0.1 nM to 50 μM). IC50s were determined by a least squares fit to the equation CPM=Vmax*(1−([I]/(K+[I])))+nsb, or pIC50s were determined by a fit to the equation CPM=nsb+(Vmax−nsb)/(1+(x/10^x−pIC50)), where nsb are the background counts.

T1 sequence (P11802 whole entry, species assumed): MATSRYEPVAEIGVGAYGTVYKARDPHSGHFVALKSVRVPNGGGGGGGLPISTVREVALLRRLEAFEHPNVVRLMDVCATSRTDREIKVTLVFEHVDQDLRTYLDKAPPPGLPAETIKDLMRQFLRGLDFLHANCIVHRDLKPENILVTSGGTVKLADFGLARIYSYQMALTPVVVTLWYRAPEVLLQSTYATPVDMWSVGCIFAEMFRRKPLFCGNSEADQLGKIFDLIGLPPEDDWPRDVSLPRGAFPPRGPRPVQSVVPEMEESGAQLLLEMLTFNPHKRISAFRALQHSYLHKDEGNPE
T1 sequence (P24385 whole entry partner, species assumed): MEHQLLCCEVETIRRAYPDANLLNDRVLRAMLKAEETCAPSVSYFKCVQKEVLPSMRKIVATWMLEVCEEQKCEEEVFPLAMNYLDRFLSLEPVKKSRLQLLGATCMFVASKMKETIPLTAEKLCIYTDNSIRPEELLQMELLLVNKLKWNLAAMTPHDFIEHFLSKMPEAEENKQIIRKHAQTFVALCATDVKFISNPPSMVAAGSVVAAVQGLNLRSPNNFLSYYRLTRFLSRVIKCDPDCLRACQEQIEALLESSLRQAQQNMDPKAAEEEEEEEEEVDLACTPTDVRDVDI

Compound	IC50
COc1cccc(-c2cnc(Nc3ccc(N4CCCCC4)nc3)o2)c1 [Example 33, N-[5-(3-methoxyphenyl)-1,3-oxazol-2-yl]-6-piperdin-1-ylpyridin-3-amine]	< 10000 nM
CCCN1CCC(c2csc(Nc3ncc(-c4cccc(OC)c4)o3)n2)CC1 [Example 49, 5-(3-methoxyphenyl)-N-[4-(1-propylpiperidin-4-yl)-1,3-thiazol-2-yl]-1,3-oxazol-2-amine]	< 1000 nM
COc1cccc(-c2cnc(Nc3ccc(-n4ccnc4)nc3)o2)c1 [Example 32, 6-(1H-imidazol-1-yl)-N-[5-(3-methoxyphenyl)-1,3-oxazol-2-yl]pyridin-3-amine]	< 10000 nM

tested on: HUVEC cells; assay: Human Umbilical Vein Endothelial Cell (HUVEC) proliferation assay (BrdU incorporation); format: cell-based; settings: growth stimulated with VEGF, 72 hrs, read-out: Inhibition of HUVEC proliferation IC50
Protocol: Human Umbilical Vein Endothelial Cell (HUVEC) Proliferation Assay (BrdU Incorporation) Materials
HUVEC cells and EGM-MV (Endothelial cell growth medium—microvascular) were purchased from Clonetics (San Diego, Calif.). VEGF and bFGF were purchased from R&D Systems (Minneapolis, Minn.). Anti-BrdU antibody was obtained from Chemicon International (Temecula, Calif.).
HUVECs were routinely maintained in EGM-MV medium and were used within passage 7. HUVECs were plated at a density of 2500 cells/well in M199 medium containing 5% FBS (Hyclone) in type I collagen coated plate (Becton Dickinson). The plate was incubated at 37° C. overnight. The medium was removed by aspiration, and test compounds were added to each well in a volume of 0.1 ml/well in serum-free M199 medium. Compound concentrations ranged from 1.5 nM to 30 micromolar. The plate was incubated for 30 min at 37° C. Another 0.1 ml of serum-free M199 medium containing BSA and VEGF (or bFGF) was added to give a final concentration of 0.1% BSA and 10 ng/ml VEGF (0.3 ng/ml bFGF). The plate was incubated at 37° C. for 72 hrs. BrdU was added to each well after the first 48 hrs to give a concentration of 10 micromolar. The colorimetric ELISA assay was performed according to manufacturer's (Roche Molecular Sciences) instructions, with detection by absorbance reading at 450 nm. Results were plotted as concentration of test compound vs. absorbance to give an IC50 value for inhibition of BrdU incorporation.

Compound	IC50
COc1ccc(S(N)(=O)=O)cc1Nc1ncc(-c2ccc(F)cc2)o1 [Example 89, 3-{[5-(4-fluorophenyl)-1,3-oxazol-2-yl]amino}-4-methoxybenzenesulfonamide]	< 1000 nM
CCS(=O)(=O)c1ccc(OC)c(Nc2ncc(-c3cccc(OC(C)c4ccncc4)c3)o2)c1 (stereo not drawn) [Example 166, N-[5-(ethylsulfonyl)-2-methoxyphenyl]-5-[3-(1-pyridin-4-ylethoxy)phenyl]-1,3-oxazol-2-amine]	< 1000 nM
CCS(=O)(=O)c1ccc(OC)c(Nc2ncc(-c3cccc(OCc4cccc(OC)c4OC)c3)o2)c1 [Example 165, 5-{3-[(2,3-dimethoxybenzyl)oxy]phenyl}-N-[5-(ethylsulfonyl)-2-methoxyphenyl]-1,3-oxazol-2-amine]	< 1000 nM
CCS(=O)(=O)c1ccc(OC)c(Nc2ncc(-c3cccc(-c4ccccn4)c3)o2)c1 [Example 178, N-[5-(ethylsulfonyl)-2-methoxyphenyl]-5-(3-pyridin-2-ylphenyl)-1,3-oxazol-2-amine]	< 500 nM
COCCCNS(=O)(=O)c1ccc(OC)c(Nc2ncc(-c3ccc(F)cc3)o2)c1 [Example 129, 3-{[5-(4-fluorophenyl)-1,3-oxazol-2-yl]amino}-4-methoxy-N-(3-methoxypropyl)benzenesulfonamide]	< 1000 nM
CCS(=O)(=O)c1ccc(OC)c(Nc2ncc(-c3cccc(-c4ccc(F)cc4)c3)o2)c1 [Example 183, N-[5-(ethylsulfonyl)-2-methoxyphenyl]-5-(4′-fluoro-1,1′-biphenyl-3-yl)-1,3-oxazol-2-amine]	< 500 nM
CCS(=O)(=O)c1ccc(OC)c(Nc2ncc(-c3ccc(F)cc3)o2)c1 [Example 109, N-[5-(ethylsulfonyl)-2-methoxyphenyl]-5-(4-fluorophenyl)-1,3-oxazol-2-amine]	< 500 nM
CCNS(=O)(=O)c1ccc(OC)c(Nc2ncc(-c3cccc(-c4ccccn4)c3)o2)c1 [Example 218, N-ethyl-4-methoxy-3-{[5-(3-pyridin-2-ylphenyl)-1,3-oxazol-2-yl]amino}benzenesulfonamide]	< 500 nM
CCS(=O)(=O)c1ccc(OC)c(Nc2ncc(-c3ccc(C#N)cc3)o2)c1 [Example 133, 4-(2-{[5-(ethylsulfonyl)-2-methoxyphenyl]amino}-1,3-oxazol-5-yl)benzonitrile]	< 500 nM
CCS(=O)(=O)c1ccc(OC)c(Nc2ncc(-c3ccc(F)c(F)c3)o2)c1 [Example 110, 5-(3,4-difluorophenyl)-N-[5-(ethylsulfonyl)-2-methoxyphenyl]-1,3-oxazol-2-amine]	< 1000 nM
CNS(=O)(=O)c1ccc(OC)c(Nc2ncc(-c3ccc(F)cc3)o2)c1 [Example 130, 3-{[5-(4-fluorophenyl)-1,3-oxazol-2-yl]amino}-4-methoxy-N-methylbenzenesulfonamide]	< 1000 nM
CCS(=O)(=O)c1ccc(OC)c(Nc2ncc(-c3ccc4c(c3)OCCCO4)o2)c1 [Example 153, 5-(3,4-dihydro-2H-1,5-benzodioxepin-7-yl)-N-[5-(ethylsulfonyl)-2-methoxyphenyl]-1,3-oxazol-2-amine]	< 1000 nM
CCS(=O)(=O)c1ccc(OC)c(Nc2ncc(-c3cccc(-c4ccc5c(c4)CCO5)c3)o2)c1 [Example 184, 5-[3-(2,3-dihydro-1-benzofuran-5-yl)phenyl]-N-[5-(ethylsulfonyl)-2-methoxyphenyl]-1,3-oxazol-2-amine]	< 500 nM
CCCCNS(=O)(=O)c1ccc(OC)c(Nc2ncc(-c3cccc(-c4ccccc4)c3)o2)c1 [Example 227, 3-{[5-(1,1′-biphenyl-3-yl)-1,3-oxazol-2-yl]amino}-N-butyl-4-methoxybenzenesulfonamide]	< 1000 nM
COc1ccc(CS(C)(=O)=O)cc1Nc1ncc(-c2ccc(F)cc2)o1 [Example 82, 5-(4-fluorophenyl)-N-{2-methoxy-5-[(methylsulfonyl)methyl]phenyl}-1,3-oxazol-2-amine]	< 1000 nM
COc1ccc(S(=O)(=O)N(C)C)cc1Nc1ncc(-c2ccc(F)cc2)o1 [Example 70, 3-{[5-(4-fluorophenyl)-1,3-oxazol-2-yl]amino}-4-methoxy-N,N-dimethylbenzenesulfonamide]	< 500 nM
CCS(=O)(=O)c1ccc(OC)c(Nc2ncc(-c3cccc(-c4ccsc4)c3)o2)c1 [Example 173, N-[5-(ethylsulfonyl)-2-methoxyphenyl]-5-(3-thien-3-ylphenyl)-1,3-oxazol-2-amine]	< 500 nM
COc1ccc(S(=O)(=O)C(C)C)cc1Nc1ncc(-c2ccc(F)cc2)o1 [Example 97, 5-(4-fluorophenyl)-N-[5-(isopropylsulfonyl)-2-methoxyphenyl]-1,3-oxazol-2-amine]	< 500 nM
COc1ccc(S(=O)(=O)NCc2ccncc2)cc1Nc1ncc(-c2ccc(F)cc2)o1 [Example 122, 3-{[5-(4-fluorophenyl)-1,3-oxazol-2-yl]amino}-4-methoxy-N-(pyridin-4-ylmethyl)benzenesulfonamide]	< 1000 nM
CCS(=O)(=O)c1ccc(OC)c(Nc2ncc(-c3cccc(-c4ccccc4Cl)c3)o2)c1 [Example 216, 5-(2′-chloro-1,1′-biphenyl-3-yl)-N-[5-(ethylsulfonyl)-2-methoxyphenyl]-1,3-oxazol-2-amine]	< 500 nM
COc1ccc(S(=O)(=O)NC2CC2)cc1Nc1ncc(-c2cccc(-c3ccccc3)c2)o1 [Example 226, 3-{[5-(1,1′-biphenyl-3-yl)-1,3-oxazol-2-yl]amino}-N-cyclopropyl-4-methoxybenzenesulfonamide]	< 500 nM
CCS(=O)(=O)c1ccc(OC)c(Nc2ncc(-c3cccc(-c4cccnc4)c3)o2)c1 [Example 174, N-[5-(ethylsulfonyl)-2-methoxyphenyl]-5-(3-pyridin-3-ylphenyl)-1,3-oxazol-2-amine]	< 1000 nM
CCS(=O)(=O)c1ccc(OC)c(Nc2ncc(-c3cccc(-c4ccccc4)c3)o2)c1 [Example 180, 5-(1,1′-biphenyl-3-yl)-N-[5-(ethylsulfonyl)-2-methoxyphenyl]-1,3-oxazol-2-amine]	< 500 nM
CCS(=O)(=O)c1ccc(OC)c(Nc2ncc(-c3ccccc3)o2)c1 [Example 56, N-[5-(ethylsulfonyl)-2-methoxyphenyl]-5-phenyl-1,3-oxazol-2-amine]	< 500 nM
